These are literature values, as cited in patent US12377031B2, “Cosmetic compositions comprising 4-hydroxyacetophenone” (L'OREAL, priority 2020, dated 2025).

As for `CC(=O)c1ccc(O)cc1` [4-hydroxyacetophenone, 4-Hydroxyacetophenone], the “heating temperature required to solubilize into aqueous systems” value was at least 60 °C and the solubility in water result was “limited solubility”.
